Measurements published in US11297835B2, “Aqueous compositions of perillic acid compounds” (B.R.A.I.N. BIOTECHNOLOGY RESEARCH AND INFORMATION NETWORK AG, priority 2016, dated 2022).

Tests used:
[1] = tested on: Aspergillus brasiliensis ATCC®16404; experiment: MIC, microdilution method adapted from DIN EN ISO 20776-1:2006; type: cell-based; details: pH <6.5; no growth after 24 h and 72 h
Protocol: (§1) The antimicrobial activity of sodium perillate was examined in vitro using the microdilution method adapted from DIN EN ISO 20776-1:2006. R-Perillic acid and S-perillic acid were used as reference compounds. All experiments were done in 96-well plates in a final volume of 200 μL. Stock solutions of the investigated compounds were prepared in 25 mM buffer. The procedure was conducted as following: 4 μL of the particular stock solution were mixed with 196 μL culture medium containing a defined inoculum of the respective target strain. Sterile controls (not inoculated) and growth controls (buffer in-stead of compound added) were performed. All compound concentrations were tested in triplicate. The following strains were examined: Escherichia coli ATCC®8739, Pseudomonas aeruginosa ATCC®9027, Stapyhlococcus aureus ATCC®6538, Candida albicans ATCC®10231 and Aspergillus brasiliensis ATCC®16404. The following culture media were used: Mueller-Hinton II Bouillon (Escherichia coli, Pseudomonas aeruginosa and Staphylococcus aureus), yeast peptone dextrose (Candida albicans) and potato dextrose (Aspergillus brasiliensis). All culture media were buffered with 25 mM MES-buffer. For compound testing the plates were incubated at 37° C. (Escherichia coli, Pseudomonas aeruginosa and Staphylococcus aureus), at 28° C. (Candida albicans) and at 25° C. (Aspergillus brasiliensis). Plates were evaluated after 24 h and 72 h, respectively. The minimal inhibitory concentration is defined as the concentration where no microbial growth was observed after 24 h and 72 h incubation at the specified temperature.
(§2) Table 1 Determination of the minimal inhibition concentration (MIC, % w/v) of sodium perillate against five classical spoiling organisms under acidic (pH<6.5) and alkaline (pH>7.5) conditions using the microdilution method adapted according to DIN EN ISO 20776-1:2006. The experiments were performed in micro-well plates in a final volume of 200 μL. MIC-values are given according to the following letter code. A>1% w/v, B=0.5-1% w/v, C=0.1-0.5% w/v. D<0.1% w/v.

[2] = tested on: Candida albicans ATCC®10231; experiment: as above; type: cell-based; details: no growth after 24 h and 72 h
Protocol: as §1, §2

[3] = tested on: Escherichia coli ATCC®8739; experiment: as above; type: cell-based; details: no growth after 24 h and 72 h
Protocol: as §1, §2

[4] = tested on: Pseudomonas aeruginosa ATCC®9027; experiment: as above; type: cell-based; details: no growth after 24 h and 72 h
Protocol: as §1, §2

[5] = tested on: Staphylococcus aureus ATCC®6538; experiment: as above; type: cell-based; details: no growth after 24 h and 72 h
Protocol: as §1, §2

[6] = tested on: Aspergillus brasiliensis ATCC®16404; experiment: Conservation efficacy testing in cosmetic oil-water-emulsion; type: cell-based; details: O/W emulsion pH 5-6, room temperature
Protocol: (§3) The conservation efficacy of sodium perillate in a final product was determined using two different formulations: • a) an oil-water-emulsion pH 5.5 (example for a cosmetic product), • b) a water-based glucose solution at pH 3.5 (example for a non-carbonated soft drink).
(§4) Hereby, a defined inoculum of the test strains was added directly to the formulations. In order to examine product preservation by sodium perillate or perillic acid, the formulations were incubated at room temperature for 4 to 16 weeks, respectively. Samples were taken every 7 days and […] (cfu) were counted on agar plates.
(§5) Among others the following strains were used to determine the efficacy of sodium peril-late in an oil-water emulsion: Escherichia coli ATCC®8739, Pseudomonas aeruginosa ATCC®9027, Stapyhlococcus aureus ATCC®6538, Candida albicans ATCC®10231, and Aspergillus brasiliensis ATCC®16404.
(§6) Table 2 Conservation efficacy testing of a typical cosmetic oil-water-emulsion at pH 5-6 supplemented with sodium perillate using five classical microbial test strains. All formulations were inoculated with a defined cell concentration and incubated over a time of 28 days at room temperature under standardized conditions. After 7, 14, 21 and 28 days samples were taken and the colony forming units (cfu) were calculated.

[7] = tested on: Candida albicans ATCC®10231; experiment: as above; type: cell-based; details: O/W emulsion pH 5-6, room temperature
Protocol: as §3, §4, §5, §6

[8] = tested on: Escherichia coli ATCC®8739; experiment: as above; type: cell-based; details: O/W emulsion pH 5-6, room temperature
Protocol: as §3, §4, §5, §6

[9] = tested on: Pseudomonas aeruginosa ATCC®9027; experiment: as above; type: cell-based; details: O/W emulsion pH 5-6, room temperature
Protocol: as §3, §4, §5, §6

[10] = tested on: Staphylococcus aureus ATCC®6538; experiment: as above; type: cell-based; details: O/W emulsion pH 5-6, room temperature
Protocol: as §3, §4, §5, §6

Asaia sp. = experiment: Conservation efficacy testing in aqueous formulation (juice matrix); type: cell-based; details: aqueous formulation (juice matrix) pH 2.5-4, room temperature
Protocol: as §3, §4
(§7) Among others the following species were used to determine the efficacy of sodium perillate in a water-based glucose formulation: Saccharomyces sp., Schizosaccharomyces sp., Asaia sp., Lactobacillus sp., and Aspergillus sp.
(§8) Table 3 Illustration of cell reduction using sodium perillate in a typical aqueous formulation (juice matrix) for beverages pH 2.5-4 supplemented with sodium perillate. Conservation efficacy testing was performed using five microbial test strains: Saccharomyces sp., Schizosaccharomyces sp., Asaia sp., Lactobacillus sp., and Aspergillus sp. All formulations were inoculated with a defined cell concentration and incubated at room temperature under standardized conditions. After 7, 14, 21 and 28 days samples were taken and the colony forming units (cfu) were calculated and shown here.

Aspergillus sp. = experiment: as above; type: cell-based; details: aqueous formulation (juice matrix) pH 2.5-4, room temperature
Protocol: as §3, §4, §7, §8

Lactobacillus sp. = experiment: as above; type: cell-based; details: aqueous formulation (juice matrix) pH 2.5-4, room temperature
Protocol: as §3, §4, §7, §8

Saccharomyces sp. = experiment: as above; type: cell-based; details: aqueous formulation (juice matrix) pH 2.5-4, room temperature
Protocol: as §3, §4, §7, §8

Schizosaccharomyces sp. = experiment: as above; type: cell-based; details: aqueous formulation (juice matrix) pH 2.5-4, room temperature
Protocol: as §3, §4, §7, §8

[11] = Stability investigation of sodium perillate on storage (TLC, GC, HPLC recovery); type: physicochemical; details: stored 12 months at 4° C., 22-25° C. and 50° C., gas and liquid chromatography
Protocol: Sodium perillate was prepared by adding a defined volume of a 0.1 M sodium hydroxide (NaOH) solution to perillic acid to give an aqueous solution of pH 7.0. The water was removed by evaporation resulting in a colorless solid. In order to investigate the stability of sodium perillate, the compound was stored for 12 months at 4° C., 22-25° C. (resemble room temperature) and 50° C. At certain time intervals all samples were examined and evaluated qualitatively using thin layer chromatography and quantitatively using gas and liquid chromatography. The results were compared to the stability of R perillic acid. […] These experiments highlight the long-term stability of sodium perillate.
Table 5 Recovery of sodium perillate measured by liquid chromatography (HPLC). Column: Phenomenex Luna 018. Method: 70% acetonitrile and 30% water, isocratic. Recovery values were calculated according to a calibration curve performed with sodium perillate in the range of 0.05-2 mM in acetonitrile. Detection was carried out by UV-light (DAD-detector) at 217 and 240 nm.

[12] = Solubility in water-based systems; type: physicochemical; details: neutral pH; compared to the free perillic acid
pKa = type: physicochemical; details: weak acid of which sodium perillate is the salt

## C=C(C)C1CC=C(C(=O)[O-])CC1.[Na+] (stereo not drawn) [Sodium perillate, sodium perillate]
[1]
  MIC: D (D<0.1% w/v)
[2]; pH <6.5
  MIC: D (D<0.1% w/v)
[2]; pH >7.5
  MIC: C (C=0.1-0.5% w/v)
[3]; pH <6.5
  MIC: C (C=0.1-0.5% w/v)
[3]; pH >7.5
  MIC: B (B=0.5-1% w/v)
[4]; pH <6.5
  MIC: B (B=0.5-1% w/v)
[4]; pH >7.5
  MIC: A (A>1% w/v)
[5]; pH <6.5
  MIC: D (D<0.1% w/v)
[5]; pH >7.5
  MIC: B (B=0.5-1% w/v)
[6]; after 28 days
  Reduced log-steps After T28: 2 log-steps
[6]; day 0
  CFU/mL at Sampling Timepoint T0: 11,000 CFU/mL
[6]; day 7
  CFU/mL at Sampling Timepoint T7: 13,000 CFU/mL
[6]; day 14
  CFU/mL at Sampling Timepoint T14: 2,270 CFU/mL
[6]; day 21
  CFU/mL at Sampling Timepoint T21: 2,900 CFU/mL
[6]; day 28
  CFU/mL at Sampling Timepoint T28: 170 CFU/mL
[7]; after 28 days
  Reduced log-steps After T28: 2 log-steps
[7]; day 0
  CFU/mL at Sampling Timepoint T0: 68,000 CFU/mL
[7]; day 7
  CFU/mL at Sampling Timepoint T7: 8,260 CFU/mL
[7]; day 14
  CFU/mL at Sampling Timepoint T14: 1,925 CFU/mL
[7]; day 21
  CFU/mL at Sampling Timepoint T21: 4,100 CFU/mL
[7]; day 28
  CFU/mL at Sampling Timepoint T28: 630 CFU/mL
[8]; after 28 days
  Reduced log-steps After T28: 3 log-steps
[8]; day 0
  CFU/mL at Sampling Timepoint T0: 1,680,000 CFU/mL
[8]; day 7
  CFU/mL at Sampling Timepoint T7: 53,500 CFU/mL
[8]; day 14
  CFU/mL at Sampling Timepoint T14: 190 CFU/mL
[8]; day 21
  CFU/mL at Sampling Timepoint T21: 370 CFU/mL
[8]; day 28
  CFU/mL at Sampling Timepoint T28: 1,430 CFU/mL
[9]; after 28 days
  Reduced log-steps After T28: 3 log-steps
[9]; day 0
  CFU/mL at Sampling Timepoint T0: 580,000 CFU/mL
[9]; day 7
  CFU/mL at Sampling Timepoint T7: 45,000 CFU/mL
[9]; day 14
  CFU/mL at Sampling Timepoint T14: 11,500 CFU/mL
[9]; day 21
  CFU/mL at Sampling Timepoint T21: 805 CFU/mL
[9]; day 28
  CFU/mL at Sampling Timepoint T28: 235 CFU/mL
[10]; after 28 days
  Reduced log-steps After T28: 6 log-steps
[10]; day 0
  CFU/mL at Sampling Timepoint T0: 130,000 CFU/mL
[10]; day 7
  CFU/mL at Sampling Timepoint T7: 0 CFU/mL
[10]; day 14
  CFU/mL at Sampling Timepoint T14: 0 CFU/mL
[10]; day 21
  CFU/mL at Sampling Timepoint T21: 0 CFU/mL
[10]; day 28
  CFU/mL at Sampling Timepoint T28: 0 CFU/mL
Asaia sp.; day 0
  CFU/mL at Sampling Timepoint T0: 45 CFU/mL
Asaia sp.; day 7
  CFU/mL at Sampling Timepoint T7: 17,250 CFU/mL
Asaia sp.; day 14
  CFU/mL at Sampling Timepoint T14: 8,940 CFU/mL
Asaia sp.; day 21
  CFU/mL at Sampling Timepoint T21: 725 CFU/mL
Asaia sp.; day 28
  CFU/mL at Sampling Timepoint T28: 685 CFU/mL
Aspergillus sp.; day 0
  CFU/mL at Sampling Timepoint T0: 10 CFU/mL
Aspergillus sp.; day 7
  CFU/mL at Sampling Timepoint T7: 0 CFU/mL
Aspergillus sp.; day 14
  CFU/mL at Sampling Timepoint T14: 0 CFU/mL
Aspergillus sp.; day 21
  CFU/mL at Sampling Timepoint T21: 0 CFU/mL
Aspergillus sp.; day 28
  CFU/mL at Sampling Timepoint T28: 0 CFU/mL
Lactobacillus sp.; day 0
  CFU/mL at Sampling Timepoint T0: 10 CFU/mL
Lactobacillus sp.; day 7
  CFU/mL at Sampling Timepoint T7: 10 CFU/mL
Lactobacillus sp.; day 14
  CFU/mL at Sampling Timepoint T14: 56 CFU/mL
Lactobacillus sp.; day 21
  CFU/mL at Sampling Timepoint T21: 340 CFU/mL
Lactobacillus sp.; day 28
  CFU/mL at Sampling Timepoint T28: 910 CFU/mL
Saccharomyces sp.; day 0
  CFU/mL at Sampling Timepoint T0: 10 CFU/mL
Saccharomyces sp.; day 7
  CFU/mL at Sampling Timepoint T7: 23,900 CFU/mL
Saccharomyces sp.; day 14
  CFU/mL at Sampling Timepoint T14: 52,900 CFU/mL
Saccharomyces sp.; day 21
  CFU/mL at Sampling Timepoint T21: 530,000 CFU/mL
Saccharomyces sp.; day 28
  CFU/mL at Sampling Timepoint T28: 470,000 CFU/mL
Schizosaccharomyces sp.; day 0
  CFU/mL at Sampling Timepoint T0: 55 CFU/mL
Schizosaccharomyces sp.; day 7
  CFU/mL at Sampling Timepoint T7: 350 CFU/mL
Schizosaccharomyces sp.; day 14
  CFU/mL at Sampling Timepoint T14: 3,265 CFU/mL
Schizosaccharomyces sp.; day 21
  CFU/mL at Sampling Timepoint T21: 4,990 CFU/mL
[11]
  Degradation products detected: no degradation products
[12]
  Solubility in water-based systems: higher solubility

## C=C(C)[C@@H]1CC=C(C(=O)O)CC1 [perillic acid]
pKa
  pKa: 4.96
